Test results taken from patent EP3045469A1, “POLYMYXIN DERIVATIVE AND USES THEREOF” (priority 2015, dated 2016).
Values joined by “and” are separate entries in the source; they are usually repeats but may differ in a detail not shown here. Equal entries are not always repeated. “Also recorded” adds a separate entry of the source. Where two headings read alike, the source gives them in different places. Where a SMILES comes first, the peptide text is derived from it. Bridges are numbered along the chain shown (N, C = ends). [ ]: non-standard residue; d: D form. The star is where a group is joined. Octanoyl = CCCCCCCC(=O)*; Dab = NCC[C@H](N)C(=O)O; Abu = CC[C@H](N)C(=O)O

Experiments:
E. coli ATCC 25922 = system: E. coli ATCC 25922
Method: (§1) Synergy studies were performed by using polymyxin derivatives in combination with rifampin, a model compound for such antibacterial agents that the intact outer membrane of Gram-negative bacteria acts as a permeability barrier.

A. baumannii JMI 48125 = system: A. baumannii JMI 48125
Method: as §1

A. baumannii ATCC 19606 = system: A. baumannii ATCC 19606
Method: as §1

K. pneumoniae ATCC 43816 = system: K. pneumoniae ATCC 43816
Method: as §1

P. aeruginosa ATCC 27853 = system: P. aeruginosa ATCC 27853
Method: as §1

K. pneumoniae JMI 27072 = system: K. pneumoniae JMI 27072
Method: as §1

P. aeruginosa JMI 7445 = system: P. aeruginosa JMI 7445
Method: as §1

E. coli JMI 3328 = system: E. coli JMI 3328
Method: as §1

[1] = Toxicokinetics (plasma and urine levels by LC-MS/MS) in cynomolgus monkeys; conditions: for urinary recoveries (0-8 h urine collection) / urine concentrations (in 0-8 h urine collection): 36 mg/kg/d; for concentration in the urine: after infusion at 8 mg/kg, highest found either in the 0-4 h or 4-8 h sample, given for each animal; for concentration in the urine / 0-8 h recovery in urine: 8 mg/kg; for 0-8 h recovery in urine: after the infusion of 8 mg/kg, percentages given for each animal
Method: (§2) For seven days, the animals were dosed by intravenous (IV) infusion three times daily (TID) at a dose volume of 10 mL/kg for 1 hour (± 10 minutes), 8 ± 0.5 hours apart. The day of initial dose administration was designated study Day 1, with subsequent days consecutively numbered. Days prior to the initial dose administration were consecutively numbered with the final day of acclimation referenced as Day -1.
(§3) The following parameters were evaluated at designed intervals: clinical observations, body weights, clinical pathology (hematology, coagulation, serum chemistry, urinalysis including urine sediments and urine chemistry), toxi-cokinetics (plasma and urine) and anatomic pathology (kidney). In cases of animals sacrificed on an unscheduled basis, samples were taken on the day of the sacrifice.
Plasma and urine concentrations for toxicokinetic (TK) studies were determined by using liquid chromatograph interfaced with a mass spectrometer after precipitation of proteins. A sample (100 µL) was mixed with internal standard solution in water:formic acid (99:1 v/v; […]). Then, 600µL of 100:1 acetonitrile:formic acid was added. The plates were centrifuged at 3200 rpm for 5 minutes. Using a Tomtec Quadra96, a 450 µL aliquot was transferred to a new 96-well plate and dried under nitrogen at 40°C. Then, 200 µL of water:methanol:formic acid (85:15:1 1 v/v) was added and the plate sealed for LC-MS/MS injection. LC-MS system consisted of Waters Acquity liquid chromatograph interfaced with a Thermo Scientific TSQ Quantitative triple quadrupole MS with ionization in the positive ion mode. Each sample (20 µL) was injected onto a Waters Acquity BEH Shield RP18 column (2.1 x 50 mm; 1.7 µm) equilibrated at 50°C. Mobile Phase A was 85:15:1 v/v water:methanol:formic acid. Mobile Phase B was 50:50:1 v/v acetonitrile:methanol:formic acid.
Peak area ratios from the calibration standard responses were regressed using a (1/concentration^2) linear fit for polymyxin B using colistin as the internal standard. For NAB739 and NAB815, peak areas from the calibration standard responses were regressed using a (1/concentration^2) quadratic fit (without the use of an internal standard).
Toxicokinetic analysis was performed by using WinNonlin Phoenix version 6.3 software (Pharsight, Cary, NC). For plasma TK, noncompartmental IV infusion model was used.
The data is from the cynomolgus monkey studies described in the Example 3, where the peptides were administered as a 1-hour intravenous infusion thrice a day. The plasma and urine levels of the peptides were determined as in Example 3.

E. coli JMI 109 = assay: MIC assay (CLSI broth microdilution; checkerboard with rifampin); assay type: cell-based, Escherichia coli; conditions: polymyxin-nonsusceptible strain
Method: as §1

[2] = 7-day intravenous toxicity (nephrotoxicity) study in cynomolgus monkeys; conditions: for kidney injury markers (S-BUN, S-Crea, U-NAG/Crea, U-GGT/Crea) / animals euthanized due to severe nephrotoxic effects: IV infusion TID, seven days; for animals euthanized due to severe nephrotoxic effects: 3 animals per group
Method: In vivo toxicity and toxicokinetic studies were performed by using cynomolgus monkeys. The laboratory that performed the animal studies is accredited by the Association for Assessment and Accreditation of Laboratory Animal Care (AAALAC), has an Animal Welfare Assurance issued by the Office of Laboratory Animal Welfare (OLAW), is registered with the United States Department of Agriculture (USDA), and has an Institutional Animal Care and Use Committee (IACUC) responsible for compliance with applicable laws and regulations concerning the humane care and use of laboratory animals.
Naive female cynomolgus monkeys were acclimatized to study room for 28 days during which each animal was implanted with a permanent indwelling femoral catheter to permit continuous intravenous infusions. The animals were allowed surgical recovery period of at least 2 weeks before initiating dosing.
Polymyxin B sulfate was from Sigma-Aldrich (catalogue number P0972, lot number BCBF8382V). On each day of use, appropriate quantities of NAB739, NAB815 or polymyxin B were weighed and dissolved in appropriate volumes of sterile saline to prepare a stock solution for each test article and positive control. A correction factor was used in the stock solution preparation to account for both the purity and sulfate content in each test article. Accordingly, the dose (such as 36 mg/kg/d) refers to the dose of the pure peptide as its free base form, not as its sulfate salt.
The doses were the following: polymyxin B 18 mg/kg/d (Group 1), polymyxin B 24 mg/kg/d (Group 2), NAB739 24 mg/kg/d (Group 3), NAB739 36 mg/kg/d (Group 4), NAB815 24 mg/kg/d (Group 5), NAB815 36 mg/kg/d (Group 6). Three animals were included in each study groups.
as §2, §3
On the day of necropsy, animals were sedated with ketamine, weighed, and anesthetized with an intravenous injection of a commercial pentobarbital and phenytoin solution, followed by exsanguinations.
At necropsy, gross observations and organ weights were recorded, and specific tissues were collected. Histopathology was conducted on sections of kidney stained with hematoxylin and eosin (H&E).
The figures also show Urine N-acetyl-β-D-glucosaminidase/urine creatinine ratio (U-NAG/Crea; Fig. 3) and Urine Gamma Glutamyltransferase/urine creatinine ratio (U-GGT/Crea; Fig. 4), both urine biomarkers for kidney injury, in those animals. S-Crea and U-Crea were measured by using an Olympus Analyzer (OA) and the modified Jaffe method, S-BUN by using OA and urease/L-glutamate dehydrogenase. U-NAG was measured by using OA/enzymatic, and U-GGT by using OA and glutamyl-carboxy-p-nitroanilide IFCC.
The presence of the following nephropathological parameters was recorded in each animal: tubular basophilia (regeneration), tubular degeneration/necrosis, infiltration (by mononuclear and/or mixed inflammatory cells), tubular dilatation, and tubular casts.

K. pneumoniae JMI 27068 = assay: MIC assay (CLSI broth microdilution; checkerboard with rifampin); assay type: cell-based, Klebsiella pneumoniae; conditions: polymyxin-nonsusceptible strain
Method: as §1

A. baumannii CMI 417 = assay: as above; assay type: cell-based, Acinetobacter baumannii; conditions: polymyxin-nonsusceptible strain
Method: as §1

[3] = alone, Müller-Hinton II broth, 35°C, 20 hours
[4] = in combination with rifampin (0.25 µg/mL), duplicate checkerboard assays

CCCCCCCC(=O)N[C@H](C(=O)N[C@H](CO)C(=O)N[C@H]1CCNC(=O)[C@H]([C@@H](C)O)NC(=O)[C@H](CCN)NC(=O)[C@H](CCN)NC(=O)[C@H](CC(C)C)NC(=O)[C@@H](Cc2ccccc2)NC(=O)[C@H](CCN)NC1=O)[C@@H](C)O [NAB739, octanoyl -Thr - DSer-[cyclo-α,γDab - αDab - DPhe- Leu - αDab -αDab - Thr]] (Octanoyl-T[dS][Dab][Dab][dF]L[Dab][Dab]T; lactam 3-C)
MIC (E. coli ATCC 25922): 1 µg/mL | MIC (E. coli ATCC 25922; [3]): 2 µg/mL | MIC (A. baumannii JMI 48125; [3]): 2 to 4 µg/mL | MIC (A. baumannii JMI 48125; [4]): 0.5 µg/mL | MIC (A. baumannii ATCC 19606; [3]): 4 µg/mL | MIC (A. baumannii ATCC 19606; [4]): 0.5 µg/mL | MIC (K. pneumoniae ATCC 43816): 1 to 2 µg/mL | MIC (K. pneumoniae ATCC 43816; [3]): 4 µg/mL | MIC (P. aeruginosa ATCC 27853; [4]): 4 to 8 µg/mL | MIC (K. pneumoniae JMI 27072; [3]): 2 to 4 µg/mL | MIC (K. pneumoniae JMI 27072; [4]): 1 µg/mL | MIC (P. aeruginosa JMI 7445; [3]): 4 µg/mL | MIC (P. aeruginosa JMI 7445; [4]): 4 µg/mL | MIC (E. coli JMI 3328): 1 µg/mL | MIC (E. coli JMI 3328; [3]): 2 µg/mL | urinary recoveries (0-8 h urine collection) ([1]; day 1, per animal): 20.4% and 26.4% | urine concentrations (in 0-8 h urine collection) ([1]; day 1, per animal): 92 µg/mL and 33 µg/mL and 82 µg/mL | urinary recoveries (0-8 h urine collection) ([1]; day 7, per animal): 30.6% and 55.8% | urine concentrations (in 0-8 h urine collection) ([1]; day 7, per animal): 268 µg/mL and 348 µg/mL | concentration in the urine [1]: 80 µg/mL and 140 µg/mL and 155 µg/mL | 0-8 h recovery in urine [1]: up to 20 % of the dose and ≤ 91 % of the dose and ≤ 92 % of the dose | MIC (E. coli JMI 109; [3]): 32 µg/mL | MIC (E. coli JMI 109; [4]): 1 µg/mL | kidney injury markers (S-BUN, S-Crea, U-NAG/Crea, U-GGT/Crea) ([2]; 24 mg/kg/d): one animal receiving NAB739 displayed marked increase in S-Crea | animals euthanized due to severe nephrotoxic effects ([2]; 36 mg/kg/d): One animal | MIC (K. pneumoniae JMI 27068; [3]): 128 µg/mL | MIC (K. pneumoniae JMI 27068; [4]): 2 µg/mL | MIC (A. baumannii CMI 417; [3]): 128 µg/mL | MIC (A. baumannii CMI 417; [4]): 2 µg/mL

CCCCCCCC(=O)N[C@@H](CCN)C(=O)N[C@H](C(=O)N[C@@H](C(=O)N[C@H]1CCNC(=O)[C@H]([C@@H](C)O)NC(=O)[C@H](CCN)NC(=O)[C@H](CC)NC(=O)[C@H](CC(C)C)NC(=O)[C@@H](Cc2ccccc2)NC(=O)[C@H](CCN)NC1=O)[C@H](C)O)[C@@H](C)O [NAB815, octanoyl - αDab -Thr - DThr-[cyclo-α,yDab - αDab - DPhe- Leu -Abu -αDab - Thr]] (Octanoyl-[Dab]T[dT][Dab][Dab][dF]L[Abu][Dab]T; lactam 4-C)
MIC (E. coli ATCC 25922; [3]): 2 µg/mL | MIC (E. coli ATCC 25922; [4]): 1 µg/mL | MIC (A. baumannii JMI 48125; [3]): 2 µg/mL | MIC (A. baumannii JMI 48125; [4]): 0.5 to 2 µg/mL | MIC (A. baumannii ATCC 19606; [3]): 4 µg/mL | MIC (A. baumannii ATCC 19606; [4]): 0.5 to 2 µg/mL | MIC (K. pneumoniae ATCC 43816; [3]): 2 to 4 µg/mL | MIC (K. pneumoniae ATCC 43816; [4]): 1 µg/mL | MIC (P. aeruginosa ATCC 27853; [3]): 16 µg/mL | MIC (P. aeruginosa ATCC 27853; [4]): >8 µg/mL | MIC (K. pneumoniae JMI 27072; [3]): 2 to 4 µg/mL | MIC (K. pneumoniae JMI 27072; [4]): 1 to 2 µg/mL | MIC (P. aeruginosa JMI 7445; [3]): 8 µg/mL | MIC (P. aeruginosa JMI 7445; [4]): 4 µg/mL | MIC (E. coli JMI 3328; [3]): 4 µg/mL | MIC (E. coli JMI 3328; [4]): 1 µg/mL | urinary recoveries (0-8 h urine collection) ([1]; day 1, per animal): 14.3% and 20.9% and 36.3% | urine concentrations (in 0-8 h urine collection) ([1]; day 1, per animal): 173 µg/mL and 265 µg/mL and 114 µg/mL | urinary recoveries (0-8 h urine collection) ([1]; day 7, per animal): 40.5% and 41.9% | urine concentrations (in 0-8 h urine collection) ([1]; day 7, per animal): 17 µg/mL and 62 µg/mL and 149 µg/mL | concentration in the urine [1]: 175 µg/mL and 225 µg/mL and 260 µg/mL | 0-8 h recovery in urine [1]: up to 38 % of the dose and ≤ 55 % of the dose and ≤ 88 % of the dose | MIC (E. coli JMI 109; [3]): 128 µg/mL | MIC (E. coli JMI 109; [4]): 1 µg/mL | kidney injury markers (S-BUN, S-Crea, U-NAG/Crea, U-GGT/Crea) ([2]; 24 mg/kg/d): None of the parameters was elevated | kidney injury markers (S-BUN, S-Crea, U-NAG/Crea, U-GGT/Crea) ([2]; 36 mg/kg/d): only minor if any elevations in the four parameters | animals euthanized due to severe nephrotoxic effects ([2]; 36 mg/kg/d): underwent no prescheduled necropsy | kidney histopathology findings (nephropathological parameters) ([2]; 36 mg/kg/d, H&E kidney sections, five parameters graded 0 no significant findings, 1 minimal, 2 mild, 3 moderate, 4 marked): moderate findings, both in one parameter only; also recorded: no other than minimal or mild findings | MIC (K. pneumoniae JMI 27068; [3]): 128 µg/mL | MIC (K. pneumoniae JMI 27068; [4]): 4 µg/mL | MIC (A. baumannii CMI 417; [3]): 256 µg/mL | MIC (A. baumannii CMI 417; [4]): 2 µg/mL
